Test results taken from US6916923B2 (Hoffmann-La Roche Inc., priority 1999, dated 2005).

Legend:
[1] = target: T1, Recombinant active human Cyclin E/CDK2 complexes (Homo sapiens, UniProt P24941); experiment: CDK2 FlashPlate Assay (inhibition of Rb phosphorylation); format: biochemical; conditions: Cyclin E/CDK2, Rb substrate, 33P-ATP, 25 minutes at room temperature; read-out: Inhibition of Cdk2 - IC50 Range
T1 construct: made in house; host or cells: insect cells
Experimental: To determine inhibition of CDK2 activity, purified recombinant retinoblastoma (Rb) protein was coated on 96 well FlashPlates (New England Nuclear, Boston, Mass.). Rb is a natural substrate for phosphorylation by CDK2 (Herwig and Strauss Eurr. J. Biochem., Vol. 246 (1997) pp. 581-601 and references therein). Recombinant active human Cyclin E/CDK2 complexes were partially purified from extracts of insect cells. The active Cyclin E/CDK2 was added to the Rb-coated FlashPlates along with ^33P-ATP and dilutions of test compounds. Plates were incubated for 25 minutes at room temperature with shaking, then washed and counted in the Topcount scintillation counter (Packard Instrument Co., Downers Grove, Ill.). Dilutions of test compounds were tested in duplicate in each assay. The percent inhibition of Rb phosphorylation, which is a measure of the inhibition of CDK2 activity, was determined according to the following formula: [formula] where “test compound” refers to the average counts per minute of the test duplicates, “nonspecific” refers to the average counts per minute when no Cyclin E/CDK2 was added, and “total” refers to the average counts per minute when no compound was added.

[2] = system: colon adenocarcinoma line SW480; experiment: SW480 cell-based antiproliferative (MTT) assay; conditions: Homo sapiens, SW480, 144 h, 1000 cells per well, 6 days post addition of test compound, read-out: Antiproliferative Activity SW480 (colon) Assay - IC50 Range
Experimental: (§1) The estrogen receptor negative epithelial breast carcinoma line (MDA-MB-435) was purchased from American Type Cell Culture Collection (ATCC; Rockville, Md.) and was grown in the medium recommended by ATCC. For analysis of the effect of the test compounds on growth of these cells, the cells were plated at 2000 cells per well in a 96-well tissue culture plate, and were incubated overnight at 37° C. with 5% CO2. The next day, the test compounds were dissolved in 100% dimethyl sulfoxide (DMSO) to yield a 10 mM stock solution. Each compound was diluted with sterile medium to 1 mM in a sufficient quantity to yield a final concentration of 120 μM. The compounds were then serially diluted in medium with 1.2% DMSO. One-fourth final volume of the diluted compounds was transferred to 96 well plates. Test compounds were assayed in duplicate. DMSO was added to a row of “control cells” such that the final concentration of DMSO in each well was 0.3%. Wells to which no cells were added served as the “blank.” Wells to which no inhibitor was added served as “no inhibitor control”. The plates were returned to the incubator, and 5 days post addition of test compound, were analyzed as described below.
(§2) 3-(4,5-Dimethylthiazole-2-yl)-2,5-diphenyl-2H-tetrazolium bromide (thiazolyl blue; MTT) was added to each well to yield a final concentration of 1 mg/mL. The plates were then incubated at 37° C. for 3 hours. The plates were centrifuged at 1000 rpm for 5 minutes prior to aspiration of the MTT-containing medium. The MTT-containing medium was then removed and 100 μL 100% ethanol was added to each well to dissolve the resulting formazan metabolite. To ensure complete dissolution, plates were shaken for 15 minutes at room temperature. Absorbencies were read in a microtiter plate reader (Molecular Dynamics) at a wavelength of 570 nm with a 650 nm reference. Percent inhibition was calculated by subtracting the absorbance of the blank (no cell) wells from all wells, then subtracting the division of the average absorbance of each test duplicate by the average of the controls from 1.00. Inhibitory concentrations (IC50) were determined from the linear regression of a plot of the logarithm of the concentration versus the percent inhibition.
The colon adenocarcinoma line SW480 and the colon carcinoma line HCT-116 also were obtained from the ATCC and were tested according to the same protocol provided above for MDA-MB435 cell based assay with the following modifications. Cell line SW480 was plated at 1000 cells per well and analyzed at 6 days post addition of the test compound. Cell line HCT-116 was plated at 1000 cells per well and analyzed at 4 days post addition of test compound.

[3] = system: estrogen receptor negative epithelial breast carcinoma line (MDA-MB-435); experiment: MDA-MB-435 cell-based antiproliferative (MTT) assay; conditions: Homo sapiens, MDA-MB-435, 120 h, 2000 cells per well, 5 days post addition of test compound, read-out: Antiproliferative Activity of MDA-MB435 (breast) Assay - IC50 Range
Experimental: as §1, §2

IC50 [1] | IC50 [2] | IC50 [3] | Compound
10000 to 30000 nM | – | – | Clc1ccc2c(c1)C(c1ccccc1Cl)=Nc1c[nH]nc1N2 [Compound A4, 5-(2-chlorophenyl)-7-chloro-pyrazolo[3,4][1,4]benzodiazepine]
1000 to 9990 nM | – | – | Clc1ccc2c(c1)C(c1ccccc1)=Nc1c[nH]nc1N2 [Compound A6, 5-phenyl-7-chloro-pyrazolo[3,4][1,4]benzodiazepine]
1000 to 9990 nM | – | – | Fc1ccccc1C1=Nc2c[nH]nc2Nc2ccc(Cl)cc21 [Compound A7, 5-(2-fluorophenyl)-7-chloro-pyrazolo[3,4][1,4]benzodiazepine]
1000 to 9990 nM | 10000 to 30000 nM | – | Fc1ccc2c(c1)C(c1ccccc1F)=Nc1c[nH]nc1N2 [Compound A11, 5-(2-fluorophenyl)-7-fluoro-pyrazolo[3,4][1,4]benzodiazepine]
10 to 990 nM | – | – | O=[N+]([O-])c1ccc2c(c1)C(c1ccccc1C(F)(F)F)=Nc1c[nH]nc1N2 [Compound A17, 5-(2-trifluoromethylphenyl)-7-nitro-pyrazolo[3,4][1,4]benzodiazepine]
1000 to 9990 nM | – | – | COC(=O)c1ccc2c(c1)C(c1ccccc1)=Nc1c[nH]nc1N2 [Compound A18, 5-phenyl-7-carbomethoxy-pyrazolo[3,4][1,4]benzodiazepine]
1000 to 9990 nM | – | – | Fc1ccccc1C1=Nc2c[nH]nc2Nc2ccc(I)cc21 [Compound A19, 5-(2-fluorophenyl)-7-iodo-pyrazolo[3,4][1,4]benzodiazepine]
10 to 990 nM | – | – | CCOC(=O)c1ccc2c(c1)C(c1ccccc1F)=Nc1c[nH]nc1N2 [Compound A20, 5-(2-fluorophenyl)-7-carboethoxy-pyrazolo[3,4][1,4]benzodiazepine]
1000 to 9990 nM | – | 10000 to 30000 nM | CCOC(=O)c1[nH]nc2c1N=C(c1ccccc1Cl)c1cc([N+](=O)[O-])ccc1N2 [Compound B2, 3-carboethoxy-5-(2-chlorophenyl)-7-nitro-pyrazolo[3,4][1,4]benzodiazepine]
1000 to 9990 nM | – | – | CC(C)Cc1[nH]nc2c1N=C(c1ccccc1Cl)c1cc([N+](=O)[O-])ccc1N2 [Compound B11, 3-(2-methylpropyl)-5-(2-chlorophenyl)-7-nitro-pyrazolo[3,4][1,4]benzodiazepine]
10 to 990 nM | – | 1100 to 9990 nM | O=[N+]([O-])c1ccc2c(c1)C(c1ccccc1Cl)=Nc1c(n[nH]c1C(F)(F)F)N2 [Compound B12, 3-trifluoromethyl-5-(2-chlorophenyl)-7-nitro-pyrazolo[3,4][1,4]benzodiazepine]
10 to 990 nM | – | – | O=[N+]([O-])c1ccc2c(c1)C(c1ccccc1Cl)=Nc1c(n[nH]c1-c1nccs1)N2 [Compound B13, 3-(1-thiazolyl)-5-(2-chlorophenyl)-7-nitro-pyrazolo[3,4][1,4]benzodiazepine]
10 to 990 nM | – | 1100 to 9990 nM | O=[N+]([O-])c1ccc2c(c1)C(c1ccccc1Cl)=Nc1c(n[nH]c1-c1c[nH]cn1)N2 [Compound B14, 3-(4-imidazolyl)-5-(2-chlorophenyl)-7-nitro-pyrazolo[3,4][1,4]benzodiazepine]
10 to 990 nM | – | 10000 to 30000 nM | O=[N+]([O-])c1ccc2c(c1)C(c1ccccc1Cl)=Nc1c(n[nH]c1-c1cc[nH]n1)N2 [Compound B15]
10 to 990 nM | – | – | CCC(C)c1[nH]nc2c1N=C(c1ccccc1Cl)c1cc([N+](=O)[O-])ccc1N2 (stereo not drawn) [Compound B17, 3-(1-methylpropyl)-5-(2-chlorophenyl)-7-nitro-pyrazolo[3,4][1,4]benzodiazepine]
10 to 990 nM | 10 to 1000 nM | – | Cc1[nH]nc2c1N=C(c1ccccc1F)c1cc(F)ccc1N2 [Compound B26, 3-methyl-5-(2-fluorophenyl)-7-fluoro-pyrazolo[3,4][1,4]benzodiazepine]
10 to 990 nM | 10 to 1000 nM | – | Cc1[nH]nc2c1N=C(c1ccccc1)c1cc([N+](=O)[O-])ccc1N2 [Compound B27, 3-methyl-5-phenyl-7-nitro-pyrazolo[3,4][1,4]benzodiazepine]

IC50 [1] | IC50 [2] | IC50 [3] | Compound
10 to 990 nM | – | – | Cc1[nH]nc2c1N=C(c1ccccc1)c1ccccc1N2 [Compound B28, 3-methyl-5-phenyl-pyrazolo[3,4][1,4]benzodiazepine]
10 to 990 nM | 1100 to 9990 nM | – | Cc1[nH]nc2c1N=C(c1ccccc1F)c1cc(Cl)ccc1N2 [Compound B32, 3-methyl-5-(2-fluorophenyl)-7-chloro-pyrazolo[3,4][1,4]benzodiazepine]
1000 to 9990 nM | 10000 to 30000 nM | – | Cc1[nH]nc2c1N=C(c1ccccc1)c1cc(I)ccc1N2 [Compound B33, 3-methyl-5-phenyl-7-iodo-pyrazolo[3,4][1,4]benzodiazepine]
1000 to 9990 nM | – | – | O=C(c1ccc2c(c1)C(c1ccccc1F)=Nc1c[nH]nc1N2)N(CCO)CCO [Compound C3, N,N-bis-(2-hydroxyethyl)-5-(2-fluorophenyl)-pyrazolo[3,4][1,4]benzodiazepine-7-carboxamide]
10 to 990 nM | – | 1100 to 9990 nM | CC(C)c1[nH]nc2c1N=C(c1ccccc1Cl)c1cc(N)ccc1N2 [Compound C6, 3-(1-methylethyl)-5-(2-chlorophenyl)-7-amino-pyrazolo[3,4][1,4]benzodiazepine]
10 to 990 nM | – | 10000 to 30000 nM | NC(=O)c1[nH]nc2c1N=C(c1ccccc1Cl)c1cc([N+](=O)[O-])ccc1N2 [Compound C10, 5-(2-chlorophenyl)-7-nitro-pyrazolo[3,4][1,4]benzodiazepine-3-carboxamide]
1000 to 9990 nM | – | – | CN(C)C(=O)c1[nH]nc2c1N=C(c1ccccc1Cl)c1cc([N+](=O)[O-])ccc1N2 [Compound C11, N,N-dimethyl-5-(2-chlorophenyl)-7-nitro-pyrazolo[3,4][1,4]benzodiazepine-3-carboxamide]
10 to 990 nM | – | 10 to 1000 nM | O=Cc1[nH]nc2c1N=C(c1ccccc1Cl)c1cc([N+](=O)[O-])ccc1N2 [Compound C13, 5-(2-chlorophenyl)-7-nitro-pyrazolo[3,4][1,4]benzodiazepine-3-carboxaldehyde]
10 to 990 nM | 10 to 1000 nM | – | Cc1[nH]nc2c1N=C(c1ccccc1F)c1cc(C(N)=O)ccc1N2 [Compound C19, 3-methyl-5-(2-fluorophenyl)-pyrazolo[3,4][1,4]benzodiazepine-7-carboxamide]
10 to 990 nM | 10 to 1000 nM | – | Cc1[nH]nc2c1N=C(c1ccccc1C(F)(F)F)c1cc([N+](=O)[O-])ccc1N2 [Compound D2]
1000 to 9990 nM | – | – | Cn1cccc1-c1[nH]nc2c1N=C(c1ccccc1Cl)c1cc([N+](=O)[O-])ccc1N2 [Compound D21]
1000 to 9990 nM | – | – | O=C(O)c1ccc2c(c1)C(c1ccccc1F)=Nc1c[nH]nc1N2 [Compound D22]
1000 to 9990 nM | – | – | Cc1ccc(-c2[nH]nc3c2N=C(c2ccccc2Cl)c2cc([N+](=O)[O-])ccc2N3)cc1 [Compound D24]
1000 to 9990 nM | – | – | Cc1ccc(-c2[nH]nc3c2N=C(c2ccccc2Cl)c2cc([N+](=O)[O-])ccc2N3)s1 [Compound D26]
1000 to 9990 nM | – | – | CN(C)c1ccc(-c2[nH]nc3c2N=C(c2ccccc2Cl)c2cc([N+](=O)[O-])ccc2N3)cc1 [Compound D28]
1000 to 9990 nM | – | – | O=[N+]([O-])c1ccc2c(c1)C(c1ccccc1)=Nc1c(n[nH]c1-c1ncc[nH]1)N2 [Compound D34]
10000 to 30000 nM | – | – | O=[N+]([O-])c1ccc2c(c1)C(c1ccccc1Cl)=Nc1c(n[nH]c1-c1ccccc1[N+](=O)[O-])N2 [Compound D39]
